Results taken from PubChem BioAssay AID1259411 (Chemical Carcinogenesis Research Information System (CCRIS), 2018).
The source made the active and inactive calls. How the calls were made is not given here.

Test system: rodent carcinogenicity bioassays, tumor incidence
Test: CCRIS carcinogenicity studies
How it was run: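 Archive of carcinogenicity, mutagenicity, tumor promotion and tumor inhibition results drawn from journals, NCI reports and other sources, expert-reviewed; covers 1985-2011 and is no longer updated.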

Structure (SMILES): [Cl][Cd][Cl]
- carcinogen call (Species: HAMSTER, Strain/Sex: SYRIAN/FEMALE, Route: INHALATION, Dose: 0, 30 UG/M3 19 HR/D 5 D/WK FOR 65 WK FOR A TOTAL CADMIUM DOSE OF 0, 180 MG/M3 (STUDY DURATION: 76 WK), Dose: 0, 30 UG/M3 19 HR/D 5 D/WK FOR 65 WK FOR A TOTAL CADMIUM DOSE OF 0, 180 MG/M3 (STUDY DURATION: 76 WK)): inactive; negative
- carcinogen call (Species: HAMSTER, Strain/Sex: SYRIAN/MALE, Route: INHALATION, Dose: 0, 30 UG/M3 19 HR/D 5 D/WK FOR 65 WK FOR A TOTAL CADMIUM DOSE OF 0, 180 MG/M3 (STUDY DURATION: 113 WK), Dose: 0, 30 UG/M3 19 HR/D 5 D/WK FOR 65 WK FOR A TOTAL CADMIUM DOSE OF 0, 180 MG/M3 (STUDY DURATION: 113 WK)): inactive; negative
- carcinogen call (Species: MOUSE, Strain/Sex: BALB/MALE, Route: SUBCUTANEOUS, Dose: 0, 20 UMOL/KG 1/WK FOR 16 WK (STUDY DURATION: 104 WK), Tumor Site: Type of Lesion: HEMATOPOIETIC SYSTEM: TUMOR): active; positive
- carcinogen call (Species: MOUSE, Strain/Sex: BALB/MALE, Route: SUBCUTANEOUS, Dose: 0, 20 UMOL/KG ONCE (STUDY DURATION: 104 WK)): inactive; negative
- carcinogen call (Species: MOUSE, Strain/Sex: CD-1/MALE, Route: SUBCUTANEOUS, Dose: 0, 0.03 MMOL/KG BW (5.5 MG/KG BW), SINGLE DOSE, Tumor Site: Type of Lesion: TESTES: INTERSTITIAL CELL TUMOR): active; positive
- carcinogen call (Species: MOUSE, Strain/Sex: CD-1/MALE, Route: SUBCUTANEOUS, Dose: 5.5 MG/KG ONCE, Tumor Site: Type of Lesion: TESTES: INTERSTITIAL CELL TUMOR): active; positive
- carcinogen call (Species: MOUSE, Strain/Sex: DBA/MALE, Route: SUBCUTANEOUS, Dose: 0, 40 UMOL/KG 1/WK FOR 16 WK (STUDY DURATION: 104 WK), Tumor Site: Type of Lesion: HEMATOPOIETIC SYSTEM: LYMPHOMA): active; positive
- carcinogen call (Species: MOUSE, Strain/Sex: DBA/MALE, Route: SUBCUTANEOUS, Dose: 0, 40 UMOL/KG ONCE (STUDY DURATION: 104 WK)): inactive; negative
- carcinogen call (Species: MOUSE, Strain/Sex: NFS/MALE, Route: SUBCUTANEOUS, Dose: 0, 40 UMOL/KG 1/WK FOR 16 WK (STUDY DURATION: 104 WK), Tumor Site: Type of Lesion: INJECTION SITE: TUMOR, LIVER: HEPATOCELLULAR ADENOMA OR CARCINOMA): active; positive
- carcinogen call (Species: MOUSE, Strain/Sex: NFS/MALE, Route: SUBCUTANEOUS, Dose: 0, 40 UMOL/KG ONCE (STUDY DURATION: 104 WK), Tumor Site: Type of Lesion: LUNG: ADENOMA OR CARCINOMA): active; positive
- carcinogen call (Species: MOUSE, Strain/Sex: SWISS/MALE, Route: SUBCUTANEOUS, Dose: 0, 40 UMOL/KG 1/WK FOR 16 WK BEGINNING AT 8 WK OF AGE (STUDY DURATION: 104 WK)): inactive; negative
- carcinogen call (Species: MOUSE, Strain/Sex: SWISS/MALE, Route: SUBCUTANEOUS, Dose: 0, 40 UMOL/KG ONCE AT 8 WK OF AGE (STUDY DURATION: 104 WK), Tumor Site: Type of Lesion: ADRENAL GLAND: ADENOMA): active; positive
- carcinogen call (Species: RAT, Strain/Sex: CS/MALE, Route: INTRAPROSTATIC, Dose: 0, 0.04 ML OF 0.1 MOLAR SOLUTION (0.73 MG) ONCE (STUDY DURATION: 250 D), Tumor Site: Type of Lesion: PROSTATE: CARCINOMA): active; positive
- carcinogen call (Species: RAT, Strain/Sex: F344/MALE, Route: SUBCUTANEOUS, Dose: 0, 3 UMOL/KG BW ONCE, THEN 30 UMOL/KG BW 1X/WK FOR 17 WK BEGINNING 1 WK POST INITIAL DOSE (STUDY DURATION: 18 WK), Tumor Site: Type of Lesion: INJECTION SITE SARCOMA): active; positive
- carcinogen call (Species: RAT, Strain/Sex: F344/MALE, Route: SUBCUTANEOUS, Dose: 0, 10, 20, 30 UMOL/KG BW 1X/WK FOR 18 WK (STUDY DURATION: 18 WK), Dose: 0, 10, 20, 30 UMOL/KG BW 1X/WK FOR 18 WK (STUDY DURATION: 18 WK), Tumor Site: Type of Lesion: INJECTION SITE SARCOMA): active; positive
- carcinogen call (Species: RAT, Strain/Sex: F344/MALE, Route: SUBCUTANEOUS, Dose: 0, 30 UMOL/KG IN DORSAL THORACIC MIDLINE AREA ONCE (STUDY DURATION: 90 WK), Tumor Site: Type of Lesion: INJECTION SITE: SARCOMA, FIBROSARCOMA): active; positive
- carcinogen call (Species: RAT, Strain/Sex: WISTAR/FEMALE, Route: INHALATION, Dose: 0, 30 UG/M3 22 HR/D 7 D/WK FOR 18 MO (STUDY DURATION: 31 MO), Tumor Site: Type of Lesion: LUNG: ALVEOLAR/BRONCHIOLAR ADENOMA, ADENOCARCINOMA): active; positive
- carcinogen call (Species: RAT, Strain/Sex: WISTAR/FEMALE, Route: INHALATION, Dose: 0, 30 UG/M3 22 HR/D 7 D/WK FOR 18 MO (STUDY DURATION: 31 MO), Tumor Site: Type of Lesion: LUNG: TUMOR): active; positive
- carcinogen call (Species: RAT, Strain/Sex: WISTAR/FEMALE, Route: INHALATION, Dose: 0, 30 UG/M3 AEROSOL 22 HR/D 7 D/WK FOR 18 MO (STUDY DURATION: 31 MO), Tumor Site: Type of Lesion: LUNG: ALVEOLAR/BRONCHIOLAR ADENOMA, SQUAMOUS CELL CARCINOMA): active; positive
- carcinogen call (Species: RAT, Strain/Sex: WISTAR/FEMALE, Route: INHALATION, Dose: 0, 90 UG/M3 22 HR/D 7 D/WK FOR 6 MO (STUDY DURATION: 29 MO), Tumor Site: Type of Lesion: LUNG: ADENOCARCINOMA, SQUAMOUS CELL CARCINOMA): active; positive
- carcinogen call (Species: RAT, Strain/Sex: WISTAR/FEMALE, Route: INHALATION, Dose: 0, 90 UG/M3 22 HR/D 7 D/WK FOR 6 MO (STUDY DURATION: 29 MO), Tumor Site: Type of Lesion: LUNG: TUMOR): active; positive
- carcinogen call (Species: RAT, Strain/Sex: WISTAR/FEMALE, Route: INHALATION, Dose: 0, 90 UG/M3 AEROSOL 22 HR/D 7 D/WK FOR 6 MO (STUDY DURATION: 29 MO), Tumor Site: Type of Lesion: LUNG: ADENOCARCINOMA, SQUAMOUS CELL CARCINOMA): active; positive
- carcinogen call (Species: RAT, Strain/Sex: WISTAR/MALE, Route: INHALATION, Dose: 0, 12.5, 25, 50 UG/M3 AEROSOL 23 HR/D 7 D/WK FOR 18 MO (STUDY DURATION: 31 MO), Dose: 0, 12.5, 25, 50 UG/M3 AEROSOL 23 HR/D 7 D/WK FOR 18 MO (STUDY DURATION: 31 MO), Tumor Site: Type of Lesion: LUNG: ADENOMA, ADENOCARCINOMA, EPIDERMOID CARCINOMA): active; positive
- carcinogen call (Species: RAT, Strain/Sex: WISTAR/MALE, Route: INHALATION, Dose: 0, 30 MG/M3 AEROSOL 22 HR/D 7 D/WK FOR 18 MO (STUDY DURATION: 30 MO), Tumor Site: Type of Lesion: LUNG: ALVEOLAR/BRONCHIOLAR ADENOMA, ADENOCARCINOMA): active; positive
- carcinogen call (Species: RAT, Strain/Sex: WISTAR/MALE, Route: INHALATION, Dose: 0, 30 UG/M3 22 HR/D 7 D/WK FOR 18 MO (STUDY DURATION: 30 MO), Tumor Site: Type of Lesion: LUNG: ALVEOLAR/BRONCHIOLAR ADENOMA, ADENOCARCINOMA): active; positive
- carcinogen call (Species: RAT, Strain/Sex: WISTAR/MALE, Route: INHALATION, Dose: 0, 30 UG/M3 22 HR/D 7 D/WK FOR 18 MO (STUDY DURATION: 30 MO), Tumor Site: Type of Lesion: LUNG: TUMOR): active; positive
- carcinogen call (Species: RAT, Strain/Sex: WISTAR/MALE, Route: INHALATION, Dose: 0, 90 UG/M3 22 HR/D 7 D/WK FOR 6 MO (STUDY DURATION: 30 MO), Tumor Site: Type of Lesion: LUNG: ALVEOLAR/BRONCHIOLAR ADENOMA, ADENOCARCINOMA, SQUAMOUS CELL CARCINOMA): active; positive
- carcinogen call (Species: RAT, Strain/Sex: WISTAR/MALE, Route: INHALATION, Dose: 0, 90 UG/M3 22 HR/D 7 D/WK FOR 6 MO (STUDY DURATION: 30 MO), Tumor Site: Type of Lesion: LUNG: TUMOR): active; positive
- carcinogen call (Species: RAT, Strain/Sex: WISTAR/MALE, Route: INHALATION, Dose: 0, 90 UG/M3 AEROSOL 22 HR/D 7 D/WK FOR 6 MO (STUDY DURATION: 30 MO), Tumor Site: Type of Lesion: LUNG: ALVEOLAR/BRONCHIOLAR, ADENOCARCINOMA, SQUAMOUS CELL CARCINOMA): active; positive
- carcinogen call (Species: RAT, Strain/Sex: WISTAR/MALE, Route: SUBCUTANEOUS, Dose: 0, 0.03 MMOL/KG BW (5.5 MG/KG BW), SINGLE DOSE, Tumor Site: Type of Lesion: TESTES: INTERSTITIAL CELL TUMOR): active; positive
- carcinogen call (Species: RAT, Strain/Sex: WISTAR/MALE, Route: SUBCUTANEOUS, Dose: 0, 3 UMOL/KG BW ONCE, THEN 30 UMOL/KG BW 1X/WK FOR 17 WK BEGINNING 1 WK POST INITIAL DOSE (STUDY DURATION: 18 WK), Tumor Site: Type of Lesion: INJECTION SITE SARCOMA): active; positive
- carcinogen call (Species: RAT, Strain/Sex: WISTAR/MALE, Route: SUBCUTANEOUS, Dose: 0, 10, 20, 30 UMOL/KG BW 1X/WK FOR 18 WK (STUDY DURATION: 18 WK), Dose: 0, 10, 20, 30 UMOL/KG BW 1X/WK FOR 18 WK (STUDY DURATION: 18 WK), Tumor Site: Type of Lesion: INJECTION SITE SARCOMA): active; positive
- carcinogen call (Species: RAT, Strain/Sex: WISTAR/MALE, Route: SUBCUTANEOUS, Dose: 5.5 MG/KG ONCE, Tumor Site: Type of Lesion: INJECTION SITE: SARCOMA, TESTES: INTERSTITIAL CELL TUMOR): active; positive
- carcinogen call (Species: RAT, Strain/Sex: WISTAR, Route: SUBCUTANEOUS, Dose: 0, 0.03 MMOL/KG BW (5.5 MG/KG BW), SINGLE DOSE, OBSERVED 2 YR, Tumor Site: Type of Lesion: INJECTION SITE: SPINDLE CELL SARCOMA, TESTES: INTERSTITIAL CELL TUMOR): active; positive
- carcinogen call (Species: RAT, Strain/Sex: WISTAR, Route: SUBCUTANEOUS, Dose: 0, 0.03 MMOL/KG BW (5.5 MG/KG BW), SINGLE DOSE, Tumor Site: Type of Lesion: INJECTION SITE: SARCOMA, TESTES: INTERSTITIAL CELL TUMOR): active; positive
- carcinogen call (Species: RAT, Strain/Sex: WISTAR, Route: SUBCUTANEOUS, Dose: 0.02-0.03 MMOL/KG BW (3.7-5.5 MG/KG BW), SINGLE DOSE, Tumor Site: Type of Lesion: INJECTION SITE: FIBROSARCOMA, TESTES: INTERSTITIAL CELL TUMOR): active; positive
